Patent US7423159B2, “Agent for preventing or treating neuropathy” (Takeda Pharmaceutical Company Limited, priority 2002, dated 2008)

melting point | Structure (SMILES)
217 to 218 °C | CCOP(=O)(Cc1ccc(NC(=O)/C=C/c2nncn2-c2ccc(F)cc2)cc1)OCC
219 to 220 °C | COP(=O)(Cc1ccc(NC(=O)/C=C/c2cnn(C)c2-c2ccccc2)cc1)OC
168 to 169 °C | CCOP(=O)(Cc1ccccc1NC(=O)/C=C/c1cnn(C)c1-c1ccc(F)cc1)OCC
119 to 120 °C | Cn1ncc(/C=C/C(=O)Nc2ccccc2CO)c1-c1ccc(F)cc1 [Example 184, (2E)-3-[5-(4-Fluorophenyl)-1-methyl-1H-pyrazol-4-yl]-N-[2-(hydroxymethyl)phenyl]acrylamide]
252 to 253 °C | Cn1ncc(/C=C/C(=O)Nc2ccc(Cn3ccnn3)cc2)c1-c1ccc(F)cc1 [Example 194, (2E)-3-[5-(4-Fluorophenyl)-1-methyl-1H-pyrazol-4-yl]-N-[4-(1H-1,2,3-triazol-1-ylmethyl)phenyl]acrylamide]
194 to 195 °C | CCOP(=O)(OCC)C(O)c1ccc(NC(=O)/C=C/c2cnn(C)c2-c2ccc(F)cc2)cc1 (stereo not shown)
200 to 201 °C | Cn1ncc(/C=C/C(=O)Nc2ccc(-n3cccn3)cc2)c1-c1ccc(F)cc1 [Example 197, (2E)-3-[5-(4-Fluorophenyl)-1-methyl-1H-pyrazol-4-yl]-N-[4-(1H-pyrazol-1-yl)phenyl]acrylamide]
200 to 201 °C | CCOP(=O)(OCC)C(OC)c1ccc(NC(=O)/C=C/c2cnn(C)c2-c2ccc(F)cc2)cc1 (stereo not shown)
200 to 201 °C | Cn1ncc(/C=C/C(=O)Nc2ccc(Cc3nn(C)c(=O)o3)cc2)c1-c1ccc(F)cc1 [Example 119, (2E)-3-[5-(4-Fluorophenyl)-1-methyl-1H-pyrazol-4-yl]-N-{4-[(4-methyl-5-oxo-4,5-dihydro-1,3,4-oxadiazol-2-yl)methyl]phenyl}acrylamide]
201 to 202 °C | Cn1ncc(/C=C/C(=O)Nc2ccc(CCc3nccs3)cc2)c1-c1ccc(F)cc1 [Example 130, (2E)-3-[5-(4-Fluorophenyl)-1-methyl-1H-pyrazol-4-yl]-N-(4-[2-(1,3-thiazol-2-yl)ethyl]phenyl}acrylamide]
202 to 203 °C | CCOC(=O)c1ccc(NC(=O)/C=C/c2cnn(C)c2-c2ccc(F)cc2)cc1 [Example 180, ethyl 4-({(2E)-3-[5-(4-fluorophenyl)-1-methyl-1H-pyrazol-4-yl]prop-2-enoyl}amino)benzoate]
169 to 172 °C | Cn1ncc(/C=C/C(=O)Nc2ccc(S(=O)(=O)c3ccccc3)cc2)c1-c1ccc(F)cc1 [Example 206, (2E)-3-[5-(4-Fluorophenyl)-1-methyl-1H-pyrazol-4-yl]-N-[4-(phenylsulfonyl)phenyl]acrylamide]
238 to 240 °C | CCOP(=O)(Cc1ccc(NC(=O)/C=C/c2cnn(C)c2-c2ccccc2F)cc1)OCC
150 to 151 °C | Cn1ncc(/C=C/C(=O)Nc2ccc(CC(C)(C)C)cc2)c1-c1ccc(F)cc1 [Example 105, (2E)-3-[5-(4-Fluorophenyl)-1-methyl-1H-pyrazol-4-yl]-N-(4-neopentylphenyl)acrylamide]
178 to 179 °C | Cn1ncc(/C=C/C(=O)Nc2ccc(Cn3nccn3)cc2)c1-c1ccc(F)cc1 [Example 196, (2E)-3-[5-(4-Fluorophenyl)-1-methyl-1H-pyrazol-4-yl]-N-[4-(2H-1,2,3-triazol-2-ylmethyl)phenyl]acrylamide]
226 to 227 °C | CC(C)CC(=O)NCc1ccc(NC(=O)/C=C/c2cnn(C)c2-c2ccc(F)cc2)cc1 [Example 141, (2E)-3-[5-(4-Fluorophenyl)-1-methyl-1H-pyrazol-4-yl]-N-(4-{[(3-methylbutanoyl)amino]methyl}phenyl)acrylamide]
214 to 215 °C | CCN1C(=O)SC(Cc2ccc(NC(=O)/C=C/c3cnn(C)c3-c3ccc(F)cc3)cc2)C1=O (stereo not shown) [Example 111, (2E)-N-{4-[(3-Ethyl-2,4-dioxo-1,3-thiazolidin-5-yl)methyl]phenyl}-3-[5-(4-fluorophenyl)-1-methyl-1H-pyrazol-4-yl]acrylamide]
220 to 221 °C | Cc1coc(Cc2ccc(NC(=O)/C=C/c3cnn(C)c3-c3ccc(F)cc3)cc2)n1 [Example 95, (2E)-3-[5-(4-Fluorophenyl)-1-methyl-1H-pyrazol-4-yl]-N-{4-[(4-methyl-1,3-oxazol-2-yl)methyl]phenyl}acrylamide]
228 to 229 °C | CC[S+]([O-])Cc1ccc(NC(=O)/C=C/c2cnn(C)c2-c2ccc(F)cc2)cc1 (stereo not shown) [Example 216, (2E)-N-{4-[(Ethylsulfinyl)methyl]phenyl}-3-[5-(4-fluorophenyl)-1-methyl-1H-pyrazol-4-yl]acrylamide]
260 to 261 °C | Cn1ncc(/C=C/C(=O)Nc2ccc([S+](C)[O-])cc2)c1-c1ccc(F)cc1 (stereo not shown) [Example 217, (2E)-3-[5-(4-Fluorophenyl)-1-methyl-1H-pyrazol-4-yl]-N-[4-(methylsulfinyl)phenyl]acrylamide]

melting point | Structure (SMILES)
207 to 209 °C | COP(=O)(Cc1ccc(NC(=O)/C=C/c2cnn(C)c2-c2ccc(C)cc2)cc1)OC
192 to 193 °C | Cc1nc(Cc2ccc(NC(=O)/C=C/c3cnn(C)c3-c3ccc(F)cc3)cc2)cs1 [Example 100, (2E)-3-[5-(4-Fluorophenyl)-1-methyl-1H-pyrazol-4-yl]-N-{4-[(2-methyl-1,3-thiazol-4-yl)methyl]phenyl}acrylamide]
300 to 305 °C (dec.) | Cn1ncc(/C=C/C(=O)Nc2ccc(S(N)(=O)=O)cc2)c1-c1ccc(F)cc1 [Example 181, (2E)-N-[4-(Aminosulfonyl)phenyl]-3-[5-(4-fluorophenyl)-1-methyl-1H-pyrazol-4-yl]acrylamide]
187 to 188 °C | CCn1nnc(Cc2ccc(NC(=O)/C=C/c3cnn(C)c3-c3ccc(F)cc3)cc2)n1 [Example 104, (2E)-N-{4-[(2-Ethyl-2H-tetrazol-5-yl)methyl]phenyl}-3-[5-(4-fluorophenyl)-1-methyl-1H-pyrazol-4-yl]acrylamide]
197 to 198 °C | Cn1ncc(/C=C/C(=O)Nc2ccc(CSc3ccccc3)cc2)c1-c1ccc(F)cc1 [Example 212, (2E)-3-[5-(4-Fluorophenyl)-1-methyl-1H-pyrazol-4-yl]-N-{4-[(phenylthio)methyl]phenyl}acrylamide]
217 to 218 °C | Cc1csc(Cc2ccc(NC(=O)/C=C/c3cnn(C)c3-c3ccc(F)cc3)cc2)n1 [Example 127, (2E)-3-[5-(4-Fluorophenyl)-1-methyl-1H-pyrazol-4-yl]-N-(4-[(4-methyl-1,3-thiazol-2-yl)methyl)phenyl]acrylamide]
206 to 207 °C | CCn1nnnc1Cc1ccc(NC(=O)/C=C/c2cnn(C)c2-c2ccc(F)cc2)cc1 [Example 103, (2E)-N-{4-[(1-Ethyl-1H-tetrazol-5-yl)methyl]phenyl}-3-[5-(4-fluorophenyl)-1-methyl-1H-pyrazol-4-yl]acrylamide]
174 to 176 °C | CCOP(=O)(OCC)c1ccc(NC(=O)/C=C/c2cnn(C)c2-c2ccc(F)cc2)cc1
154 to 155 °C | Cn1ncc(/C=C/C(=O)Nc2ccc(OCc3nnco3)cc2)c1-c1ccc(F)cc1 [Example 94, (2E)-3-[5-(4-Fluorophenyl)-1-methyl-1H-pyrazol-4-yl]-N-[4-(1,3,4-oxadiazol-2-ylmethoxy)phenyl]acrylamide]
200 to 201 °C | CCOP(=O)(Cc1ccc(NC(=O)/C=C/c2cnn(C)c2-c2ccc(C(F)(F)F)cc2)cc1)OCC
150 to 152 °C | Cn1nnnc1SCc1ccc(NC(=O)/C=C/c2cnn(C)c2-c2ccc(F)cc2)cc1 [Example 214, (2E)-3-[5-(4-Fluorophenyl)-1-methyl-1H-pyrazol-4-yl]-N-(4-[[(1-methyl-1H-tetrazol-5-yl)thio]methyl]phenyl)acrylamide]
179 to 183 °C | Cn1nnnc1[S+]([O-])Cc1ccc(NC(=O)/C=C/c2cnn(C)c2-c2ccc(F)cc2)cc1 (stereo not shown) [Example 220, (2E)-3-[5-(4-Fluorophenyl)-1-methyl-1H-pyrazol-4-yl]-N-(4-{[(1-methyl-1H-tetrazol-5-yl)sulfinyl]methyl}phenyl)acrylamide]
245 to 246 °C | Cn1ncc(/C=C/C(=O)Nc2ccc(CC(=O)O)cc2)c1-c1ccc(F)cc1 [Example 133, [4-({(2E)-3-[5-(4-fluorophenyl)-1-methyl-1H-pyrazol-4-yl]prop-2-enoyl]amino}phenyl]acetic acid]
143 to 144 °C | CCOC(=O)Cc1ccc(NC(=O)CCc2cnn(-c3ccccc3)c2-c2ccccc2)cc1 [Example 81, N-[4-(Ethoxycarbonylmethyl)phenyl]-3-(1,5-diphenyl-1H-pyrazol-4-yl)propionamide]
229 to 230 °C | Cn1ncc(/C=C/C(=O)Nc2ccc(Cn3ccnc3CO)cc2)c1-c1ccc(F)cc1 [Example 200, (2E)-3-[5-(4-Fluorophenyl)-1-methyl-1H-pyrazol-4-yl]-N-(4-{[2-(hydroxymethyl)-1H-imidazol-1-yl]methyl}phenyl)acrylamide]
110 to 112 °C | Cn1ncc(/C=C/C(=O)Nc2ccc(C(=O)c3ccccc3)cc2)c1-c1ccc(F)cc1 [Example 205, (2E)-N-(4-Benzoylphenyl)-3-[5-(4-fluorophenyl)-1-methyl-1H-pyrazol-4-yl]acrylamide]
159 to 161 °C | Cn1nnc(Cc2ccc(NC(=O)/C=C/c3cnn(C)c3-c3ccc(F)cc3)cc2)n1 [Example 102, (2E)-3-[5-(4-Fluorophenyl)-1-methyl-1H-pyrazol-4-yl]-N-{4-[(2-methyl-2H-tetrazol-5-yl)methyl]phenyl}acrylamide]
150 to 152 °C | CCc1nc(Cc2ccc(NC(=O)/C=C/c3cnn(C)c3-c3ccc(F)cc3)cc2)no1 [Example 118, (2E)-N-{4-[(5-Ethyl-1,2,4-oxadiazol-3-yl)methyl]phenyl}-3-[5-(4-fluorophenyl)-1-methyl-1H-pyrazol-4-yl]acrylamide]
204 to 205 °C | CC(=O)c1ccc(NC(=O)/C=C/c2cnn(C)c2-c2ccc(F)cc2)cc1 [Example 165, (2E)-N-(4-Acetylphenyl)-3-[5-(4-fluorophenyl)-1-methyl-1H-pyrazol-4-yl)acrylamide]
198 to 200 °C | Cn1ncc(/C=C/C(=O)Nc2ccc(CCO)cc2)c1-c1ccc(F)cc1 [Example 167, (2E)-3-[5-(4-Fluorophenyl)-1-methyl-1H-pyrazol-4-yl]-N-[4-(2-hydroxyethyl)phenyl]acrylamide]
